The target in one assay is Activated CDK2/CyclinA (Homo sapiens, UniProt P24941). Kind of assay: Activated CDK2/CyclinA kinase inhibitory activity assay. The class given is biochemical. As to conditions: Example 10. Here is the method:
(§1) Activated CDK2/CyclinA (Brown et al, Nat. Cell Biol., 1, pp 438-443, 1999; Lowe, E. D., et al Biochemistry, 41, pp 15625-15634, 2002) is diluted to 125 pM in 2.5× strength assay buffer (50 mM MOPS pH 7.2, 62.5 mM β-glycerophosphate, 12.5 mM EDTA, 37.5 mM MgCl2, […], 2.5 mM DTT, 2.5 mM sodium orthovanadate, 0.25 mg/ml bovine serum albumin), and 10 μl mixed with 10 μl of histone substrate mix (60 μl bovine histone H1 (Upstate Biotechnology, 5 mg/ml), 940 μl H2O, 35 μCi γ^33P-ATP) and added to 96 well plates along with 5 μl of various dilutions of the test compound in DMSO (up to 2.5%). The reaction is allowed to proceed for 2 to 4 hours before being stopped with an excess of ortho-phosphoric acid (5 μl at 2%).
γ^33P-ATP which remains unincorporated into the histone H1 is separated from phosphorylated histone H1 on a Millipore MAPH filter plate. The wells of the MAPH plate are wetted with 0.5% orthophosphoric acid, and then the results of the reaction are filtered with a Millipore vacuum filtration unit through the wells. Following filtration, the residue is washed twice with 200 μl of 0.5% orthophosphoric acid. Once the filters have dried, 20 μl of Microscint 20 scintillant is added, and then counted on a Packard Topcount for 30 seconds. […]

For the next assay, the target named is T1, CDK1/CyclinB (Homo sapiens, UniProt P06493).
T1 construct: purchased Upstate Discovery
T1 sequence (P06493 whole entry): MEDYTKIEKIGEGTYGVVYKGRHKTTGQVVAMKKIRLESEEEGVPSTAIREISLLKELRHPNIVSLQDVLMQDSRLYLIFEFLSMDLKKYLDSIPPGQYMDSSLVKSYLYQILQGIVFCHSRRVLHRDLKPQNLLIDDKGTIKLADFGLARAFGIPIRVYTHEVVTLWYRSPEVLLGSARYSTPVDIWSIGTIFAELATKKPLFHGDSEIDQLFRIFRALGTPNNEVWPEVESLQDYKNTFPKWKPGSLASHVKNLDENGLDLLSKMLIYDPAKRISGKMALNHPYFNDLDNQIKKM
T1 sequence (P14635 whole entry partner): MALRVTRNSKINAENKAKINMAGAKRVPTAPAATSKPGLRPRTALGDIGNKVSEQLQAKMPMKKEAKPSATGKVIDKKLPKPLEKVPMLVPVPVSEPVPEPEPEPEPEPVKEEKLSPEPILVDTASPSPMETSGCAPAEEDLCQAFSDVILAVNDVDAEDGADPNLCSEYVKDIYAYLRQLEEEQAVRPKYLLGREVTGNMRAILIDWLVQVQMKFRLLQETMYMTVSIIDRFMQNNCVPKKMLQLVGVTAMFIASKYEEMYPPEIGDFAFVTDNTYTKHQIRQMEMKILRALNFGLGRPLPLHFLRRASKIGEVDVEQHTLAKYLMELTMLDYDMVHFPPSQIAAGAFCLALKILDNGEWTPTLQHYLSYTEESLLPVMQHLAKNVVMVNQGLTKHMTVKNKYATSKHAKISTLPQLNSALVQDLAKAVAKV
Kind of assay: Activated CDK1/CyclinB kinase inhibitory activity assay. The class given is biochemical. As to conditions: Example 11, read-out: IC50 in the CDK2 assay (stated under the CDK1/CyclinB assay, Example 11). The procedure:
as §1
γ^33P-ATP which remains unincorporated into the histone H1 is separated from phosphorylated histone H1 on a Millipore MAPH filter plate. The wells of the MAPH plate are wetted with 0.5% orthophosphoric acid, and then the results of the reaction are filtered with a Millipore vacuum filtration unit through the wells. Following filtration, the residue is washed twice with 200 μl of 0.5% orthophosphoric acid. Once the filters have dried, 20 μl of Microscint 20 scintillant is added, and then counted on a Packard Topcount for 30 seconds. The % inhibition of the CDK2 activity is calculated and plotted in order to determine the concentration of test compound required to inhibit 50% of the CDK2 activity (IC50).
CDK1/CyclinB assay.is identical to the CDK2/CyclinA above except that CDK1/CyclinB (Upstate Discovery) is used and the enzyme is diluted to 6.25 nM.

Another assay has as its system HCT-116 cell line. Kind of assay: Anti-proliferative activity, Alamar Blue assay. As to conditions: Homo sapiens, read-out: IC50 against the HCT-116 cell line. It counts as cell-based. The procedure:
The anti-proliferative activities of compounds of the invention can be determined by measuring the ability of the compounds to inhibition of cell growth in a number of cell lines. Inhibition of cell growth is measured using the Alamar Blue assay (Nociari, M. M, Shalev, A., Benias, P., Russo, C. Journal of Immunological Methods 1998, 213, 157-167). The method is based on the ability of viable cells to reduce resazurin to its fluorescent product resorufin. For each proliferation assay cells are plated onto 96 well plates and allowed to recover for 16 hours prior to the addition of inhibitor compounds for a further 72 hours. At the end of the incubation period 10% (v/v) Alamar Blue is added and incubated for a further 6 hours prior to determination of fluorescent product at […]. In the case of the non-proliferating cell assay cells are maintained at confluence for 96 hour prior to the addition of inhibitor compounds for a further 72 hours. The number of viable cells is determined by Alamar Blue assay as before. In addition, any morphological changes are recorded. All cell lines can be obtained from ECACC (European Collection of cell Cultures).
In particular, compounds of the invention were tested against the HCT-116 cell line (ECACC Reference: 91091005) derived from human colon carcinoma.
In general terms: Resazurin is reduced to fluorescent resorufin, in cell work by metabolically active cells.

The target of the next assay is T2, AuroraB (Homo sapiens, UniProt Q96GD4).
T2 construct: purchased ProQinase
T2 sequence (Q96GD4 whole entry): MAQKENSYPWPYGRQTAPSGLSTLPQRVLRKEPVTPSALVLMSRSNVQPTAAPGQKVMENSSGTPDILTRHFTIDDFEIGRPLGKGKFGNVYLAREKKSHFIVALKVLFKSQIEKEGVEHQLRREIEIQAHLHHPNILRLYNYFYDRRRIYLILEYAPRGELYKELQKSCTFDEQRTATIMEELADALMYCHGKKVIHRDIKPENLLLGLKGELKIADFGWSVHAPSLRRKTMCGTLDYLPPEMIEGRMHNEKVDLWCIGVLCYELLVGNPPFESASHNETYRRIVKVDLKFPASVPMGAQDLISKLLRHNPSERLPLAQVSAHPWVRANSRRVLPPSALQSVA
The experiment in a line: Aurora B kinase assay (DELFIA). The class given is biochemical. To be noted: 15 μM ATP. Here is the method: Aurora activity was determined using a Dissociative Enhanced Lanthanide Fluoro Immuno Assay (DELFIA) with a GSK3-derived biotinylated peptide. The amount of phosphorylated peptide produced is quantified by means of a phospho-specific primary antibody and europium-labelled anti-rabbit IgG antibody using time-resolved fluorescence at λex=337 nm, λem=620 nm.
Assay reactions are set up in 96 well plates in a total reaction volume of 25 μl with 5 nM AuroraB (ProQinase), 3 μM Biotin-[…], 15 μM ATP and various dilutions of compound in 25 mM TRIS pH 8.5, 0.1 mg/ml BSA, 0.025% Surfact-Amps 20, 5 mM MgCl2, 1 mM DTT, & 2.5% DMSO. The reaction is allowed to proceed for 90 minutes at room temperature before stopping with 100 μl STOP buffer containing 100 mM EDTA, 0.05% Surfact-amps20 (Pierce) and 1× Blocker™ BSA in TBS (Pierce).
The detection step was carried out as described for AuroraA.

In another assay the target is GSK3β (human) (Homo sapiens, UniProt P49841). The experiment in a line: Inhibitory activity against Glycogen Synthase Kinase-3. The class given is biochemical. Here is the method: GSK3β (human) is diluted to a 10× working stock in 50 mM Tris pH 7.5, 0.1 mM EGTA, 0.1 mM sodium vanadate, 0.1% β-mercaptoethanol, 1 mg/ml BSA. One unit equals the incorporation of 1 nmol of phosphate per minute phospho-glycogen synthase peptide 2 per minute.
GSK3β (human), sequence (P49841 whole entry): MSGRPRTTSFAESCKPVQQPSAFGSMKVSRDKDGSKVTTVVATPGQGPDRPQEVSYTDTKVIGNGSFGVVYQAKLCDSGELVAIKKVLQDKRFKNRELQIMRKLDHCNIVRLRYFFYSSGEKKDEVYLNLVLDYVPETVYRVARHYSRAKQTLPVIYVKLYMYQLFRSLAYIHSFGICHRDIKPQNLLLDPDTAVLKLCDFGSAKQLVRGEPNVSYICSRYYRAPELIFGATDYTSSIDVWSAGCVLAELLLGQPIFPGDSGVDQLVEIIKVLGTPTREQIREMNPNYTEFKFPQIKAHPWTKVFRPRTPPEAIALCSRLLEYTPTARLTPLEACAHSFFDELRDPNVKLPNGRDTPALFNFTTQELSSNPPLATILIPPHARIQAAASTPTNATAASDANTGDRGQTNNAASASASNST
In a final reaction volume of 25 μl, GSK3β (5-10 mU) is incubated with 8 mM MOPS 7.0, 0.2 mM EDTA, 20 μM […](p)EDEEE (phospho GS2 peptide), 10 mM MgAcetate and [γ-^33P-ATP] (specific activity approx 500 cpm/pmol, concentration as required). The reaction is initiated by the addition of Mg^2+[γ-^33P-ATP]. After incubation for 40 minutes at room temperature the reaction is stopped by the addition of 5 μl of a 3% phosphoric acid solution. 10 μl of the reaction is spotted onto a P30 filter mat and washed 3 times for 5 minutes in 50 mM phosphoric acid and once in methanol prior to drying and counting.

Structures are written as SMILES. Read-outs that look alike come from different tables or passages of the source.

The values that follow come from US20080312223A1, “Thiazole And Isothiazole Derivatives That Modulate The Activity Of CDK, GSK And Aurora Kinases” (ASTEX THERAPEUTICS LIMITED, priority 2004, published 2008).

In the case of `O=C(Nc1scnc1-c1nc2ccc(CN3CCOCC3)cc2[nH]1)c1c(F)cccc1F` [Example 2, 2,6-difluoro-N-[4-(6-morpholin-4ylmethyl-1H-benzoimidazol-2-yl)-thiazol-5-yl]benzamide], the IC50 at Activated CDK2/CyclinA is < 10 µM; on CDK1/CyclinB, < 10 µM; in the assay on HCT-116 cell line (HCT-116, 72 hours, Alamar Blue), < 1 µM.
Regarding `O=C(Nc1scnc1-c1nc2ccccc2[nH]1)c1c(F)cccc1F` [Example 1, N-[4-(1H-benzoimidazol-2-yl)-thiazol-5-yl]-2,6-difluoro-benzamide], the IC50 was < 0.1 µM against AuroraB; < 10 µM against Activated CDK2/CyclinA; < 10 µM on CDK1/CyclinB; < 15 µM in the assay on HCT-116 cell line (HCT-116, 72 hours, Alamar Blue); < 1 µM against GSK3β (human).
Regarding `O=C(Nc1csnc1-c1nc2cc(CN3CCOCC3)ccc2[nH]1)c1c(F)cccc1F` [Example 3, 2,6-difluoro-N-[3-(5-morpholin-4-ylmethyl-1H-benzoimidazol-2-yl)-isothiazol-4-yl]-benzamide], the IC50 on CDK1/CyclinB was < 10 µM; in the assay on HCT-116 cell line (HCT-116, 72 h), < 15 µM.
